Reference: PMC10059066, “Probing Serum Albumins and Cyclodextrins as Binders of the Mycotoxin Metabolites Alternariol-3-Glucoside, Alternariol-9-Monomethylether-3-Glucoside, and Zearalenone-14-Glucuronide” (Metabolites, 2023)
Where “and” joins values, the source holds several entries; their conditions need not be identical. Equal entries are not always repeated. Where two headings read alike, the source gives them in different places.

Assays:
[1] = Fluorescence spectroscopic study of mycotoxin-SGD complex formation; format: binding; details: SGD 0–5 mM, mycotoxin 1 μM, sodium acetate pH 5.0
Description: (§1) The impacts of SBECD (0–10 mM) and SGD (0–5 mM) on the emission signals of mycotoxins (1 μM each) were tested in sodium acetate buffer (0.05 M, pH 5.0). Mycotoxin–CD interactions were evaluated using the Benesi–Hildebrand equation [11, 31], assuming 1:1 stoichiometry of complex formation:(2) F0/F−F0=1/A+1/A×K×[CD] where K (L/mol) is the binding constant, F0 is the emission signal of the mycotoxin without the host molecules, F is the emission signal of the mycotoxin with CDs, A is a constant, and [CD] is the molar concentration (mol/L) of the host molecules.
(§2) Therefore, CD-induced elevation in the fluorescence emission intensities of mycotoxins was examined.
(§3) Based on the emission signals at 455 nm, the binding constants of ligand–CD complexes were calculated using the Benesi–Hildebrand equation (Equation (2)). Background corrections were performed in each experiment. […] Glucose and glucuronic acid are bulky, hydrophilic molecules; therefore, it is reasonable to hypothesize that these substituents make the inclusion of AG, AMG, and Z14Glr by the apolar CD cavity difficult.

[2] = Extraction of mycotoxins from aqueous solutions with β-cyclodextrin bead polymer; details: for decrease in mycotoxin concentration (extraction) by BBP: BBP 10 mg/mL, mycotoxin 5 μM, sodium acetate buffer pH 5.0, 40 min, 25 °C
Description: (§4) The extraction of mycotoxins by insoluble (but water-swellable) CD bead polymers was tested in 0.05 M sodium acetate (pH 5.0) and 0.05 M sodium borate (pH 10.0) buffers. AG, AMG, alternariol, Z14Glr, and zearalenone solutions (5 μM each) were incubated with increasing amounts (0–10 mg/mL) of BBP or GBP in a thermomixer for 40 min at 1000 rpm and 25 °C. After pulse centrifugation (5000× g, 3 s), the mycotoxin contents of the supernatants were analyzed by HPLC-FLD (see Section 2.5).
(§5) The quantitative analyses of the examined mycotoxins were performed with a Jasco HPLC system (Tokyo, Japan) equipped with a binary pump (PU-4180), an autosampler (AS 4050), and a fluorescence detector (FP-920). Chromatograms were evaluated using the ChromNAV2 software (Jasco). Alternariol and zearalenone were analyzed as described previously. During the validation of our new HPLC-FLD methods, the linearity (LIN), limit of detection (LOD), limit of quantification (LOQ), and intraday repeatability (IDR) were determined as described previously.
(§6) AG and AMG were quantified using the following method: Isocratic elution of the samples (20 μL) was performed at room temperature with a 1 mL/min flow rate, employing phosphoric acid (1 mM) and acetonitrile (65:35 v/v%) as the mobile phase, where a Security Guard (C18, 4.0 × 3.0 mm; Phenomenex, Torrance, CA, US) precolumn was linked to a Kinetex EVO C18 (250 × 4.6 mm, 5 μm; Phenomenex) analytical column. Chromatograms were recorded, applying 335 nm and 455 nm excitation and emission wavelengths, respectively. The method validation parameters were as follows: AG (LIN: 0.2–5.0 μM, R^2 = 0.999; LOD = 0.05 μM; LOQ = 0.18 μM; IDR = 1.3%, n = 7); AMG (LIN: 0.2–5.0 μM, R^2 = 0.997; LOD = 0.15 μM; LOQ = 0.50 μM; IDR = 2.3%, n = 7).
(§7) Z14Glr was quantified using the following method: Isocratic elution of the samples (20 μL) was performed at room temperature with a 1 mL/min flow rate, employing 1% acetic acid solution and acetonitrile (65:35 v/v%) as the mobile phase, where a Security Guard (C8, 4.0 × 3.0 mm; Phenomenex) precolumn was linked to a Mediterranea See8 (C8, 150 × 4.6 mm, 5 μm; Teknokroma, Barcelona, Spain) analytical column. Chromatograms were recorded, applying 315 nm and 465 nm excitation and emission wavelengths, respectively. The method validation parameters for the HPLC analysis of Z14Glr were also determined (LIN: 0.2–5.0 μM, R^2 = 0.999; LOD = 0.15 μM; LOQ = 0.50 μM; IDR = 2.0%, n = 7).

[3] = molecular target: T1, human serum albumin (HSA) (Homo sapiens, UniProt P02768); assay: Ultracentrifugation study of mycotoxin-HSA binding
T1 construct: purchased Merck (Darmstadt, Germany)
Description: To confirm the data calculated based on fluorescence quenching studies, ultracentrifugation experiments were also performed. With the proper conditions of ultracentrifugation, albumin (with the bound ligands) can be sedimented. The samples (final volume: 500 μL) contained AG, AMG, or Z14Glr (5 μM each) with HSA (60 or 180 μM) dissolved in PBS. Centrifugation (16 h, 170,000× g, 20 °C) was performed using 11 × 34 mm PC tubes (Beckman Coulter, Brea, CA, US) and a Beckman Coulter Optima MAX-XP tabletop ultracentrifuge (fixed-angle rotor). The unbound fractions of mycotoxins were determined in the protein-free supernatant by HPLC-FLD (see details in Section 2.5), as previously reported. (3) K=[LA]/L×[A] where [L], [A], and [LA] are the concentrations (mol/L) of the ligand (unbound), albumin (unbound), and the ligand–albumin complex, respectively.
Furthermore, to test the impact of environmental pH on the stability of mycotoxin–albumin complexes, the abovementioned experiments were also performed in 0.05 M sodium acetate (pH 5.0) and 0.05 M sodium borate (pH 8.5) buffers.
To confirm the binding constants determined in the quenching experiments, and to get insight into the interaction of Z14Glr with HSA, ultracentrifugation studies were also performed. In these investigations, albumins (with the ligands bound) were sedimented, and then the concentrations of the unbound mycotoxins were quantified from the supernatants.

[4] = molecular target: T2, porcine serum albumin (PSA) (Sus scrofa, UniProt P08835); assay: Fluorescence quenching of porcine serum albumin by mycotoxins; format: binding; details: mycotoxin 0–5 μM, albumin 2 μM, PBS pH 7.4
T2 construct: purchased Merck (Darmstadt, Germany)
Description: (§8) Fluorescence emission spectra were collected at 25 °C using a Hitachi F-4500 fluorescence spectrophotometer (Tokyo, Japan). The quenching effects of AG, AMG, and Z14Glr (each 0–5 μM) on the emission signals of albumins (2 μM each) were examined at 340 nm in phosphate-buffered saline (PBS, pH 7.4). UV–vis measurements were performed at 25 °C in PBS, employing a Jasco V730 UV–vis spectrophotometer (Tokyo, Japan). Thereafter, we corrected the inner-filter effects of the mycotoxins, as previously reported. Stern–Volmer quenching constants (KSV; L/mol) were calculated with the graphical application of the Stern–Volmer equation [11, 29]:(1) I0/I=1+KSV×Q where I0 and I are the emission intensities of the protein without and with the quencher, respectively, while [Q] is the concentration (mol/L) of the quencher (mycotoxin). The binding constants (K; L/mol) of mycotoxin–albumin complexes were determined with nonlinear fitting, using the HyperQuad2006 software (version 3.1; Protonic Software GmbH, Hanau, Germany), as described previously.
(§9) The interaction of a ligand molecule with albumin usually induces a decrease in the emission signal of the protein [33]; therefore, fluorescence quenching studies were performed. In PBS (pH 7.4), increasing amounts of AG, AMG, and Z14Glr were added to standard concentrations of human (HSA), bovine (BSA), porcine (PSA), or rat (RSA) serum albumins, after which the emission spectra were recorded.
(§10) The KSV and K values of mycotoxin–albumin complexes were determined using the Stern–Volmer equation (Equation (1)) and the HyperQuad2006 software (see data in Table 1 and Table 2, respectively). […] The logKSV and logK values of the mycotoxin–albumin complexes were in good agreement (Table 1 and Table 2).

[5] = molecular target: T1, human serum albumin (HSA); assay: Fluorescence quenching of human serum albumin by mycotoxins; format: binding; details: mycotoxin 0–5 μM, albumin 2 μM, PBS pH 7.4
Description: as §8, §9, §10

[6] = Fluorescence spectroscopic study of mycotoxin-SBECD complex formation; format: binding
Description: as §1, §2, §3

rat serum albumin (RSA) [7] = molecular target: T3, rat serum albumin (RSA) (Rattus norvegicus, UniProt P02770); assay: Ultracentrifugation study of Z14Glr-RSA binding; details: PBS pH 7.4, read-out: logK of the Z14Glr–RSA complex (converted)
T3 construct: purchased Merck (Darmstadt, Germany)

rat serum albumin (RSA) [8] = molecular target: T3, rat serum albumin (RSA); assay: Fluorescence quenching of rat serum albumin by mycotoxins; format: binding
Description: as §8, §9, §10

[9] = molecular target: T4, bovine serum albumin (BSA) (Bos taurus, UniProt P02769); assay: Fluorescence quenching of bovine serum albumin by mycotoxins; format: binding; details: mycotoxin 0–5 μM, albumin 2 μM, PBS pH 7.4
T4 construct: purchased Merck (Darmstadt, Germany)
Description: as §8, §9, §10

[10] = Extraction of mycotoxins from aqueous solutions with γ-cyclodextrin bead polymer; details: GBP 0–10 mg/mL, mycotoxin 5 μM, sodium acetate buffer pH 5.0
Description: as §4, §5
as §6, with “The method validation parameters were as follows: AG (LIN: 0.2–5.0 μM, R^2 = 0.999; LOD = 0.05 μM; LOQ = 0.18 μM; IDR = 1.3%, n = 7); AMG (LIN: 0.2–5.0 μM, R^2 = 0.997; LOD = 0.15 μM; LOQ = 0.50 μM; IDR = 2.3%, n = 7).” left out
as §7, with “The method validation parameters for the HPLC analysis of Z14Glr were also determined (LIN: 0.2–5.0 μM, R^2 = 0.999; LOD = 0.15 μM; LOQ = 0.50 μM; IDR = 2.0%, n = 7).” left out

albumins = system: albumins; parameters: method as in PMID 31083629; details: alternariol, RSA vs HSA; cited from earlier work

T1 sequence (P02768 25-609): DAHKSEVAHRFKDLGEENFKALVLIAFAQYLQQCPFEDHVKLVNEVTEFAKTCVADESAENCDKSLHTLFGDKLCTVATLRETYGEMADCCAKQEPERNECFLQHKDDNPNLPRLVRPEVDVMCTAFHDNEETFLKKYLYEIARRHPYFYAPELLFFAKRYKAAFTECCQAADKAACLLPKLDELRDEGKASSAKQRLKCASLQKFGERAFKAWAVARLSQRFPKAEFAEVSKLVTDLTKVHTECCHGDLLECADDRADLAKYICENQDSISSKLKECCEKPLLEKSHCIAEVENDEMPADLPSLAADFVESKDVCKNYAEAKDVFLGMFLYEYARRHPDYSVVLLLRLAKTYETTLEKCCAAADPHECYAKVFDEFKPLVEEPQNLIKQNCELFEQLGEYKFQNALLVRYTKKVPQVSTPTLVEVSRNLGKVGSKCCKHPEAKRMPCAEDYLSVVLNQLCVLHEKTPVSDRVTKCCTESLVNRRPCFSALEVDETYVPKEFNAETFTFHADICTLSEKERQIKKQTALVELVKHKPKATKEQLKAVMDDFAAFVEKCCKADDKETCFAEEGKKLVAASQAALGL
T3 sequence (P02770 25-608): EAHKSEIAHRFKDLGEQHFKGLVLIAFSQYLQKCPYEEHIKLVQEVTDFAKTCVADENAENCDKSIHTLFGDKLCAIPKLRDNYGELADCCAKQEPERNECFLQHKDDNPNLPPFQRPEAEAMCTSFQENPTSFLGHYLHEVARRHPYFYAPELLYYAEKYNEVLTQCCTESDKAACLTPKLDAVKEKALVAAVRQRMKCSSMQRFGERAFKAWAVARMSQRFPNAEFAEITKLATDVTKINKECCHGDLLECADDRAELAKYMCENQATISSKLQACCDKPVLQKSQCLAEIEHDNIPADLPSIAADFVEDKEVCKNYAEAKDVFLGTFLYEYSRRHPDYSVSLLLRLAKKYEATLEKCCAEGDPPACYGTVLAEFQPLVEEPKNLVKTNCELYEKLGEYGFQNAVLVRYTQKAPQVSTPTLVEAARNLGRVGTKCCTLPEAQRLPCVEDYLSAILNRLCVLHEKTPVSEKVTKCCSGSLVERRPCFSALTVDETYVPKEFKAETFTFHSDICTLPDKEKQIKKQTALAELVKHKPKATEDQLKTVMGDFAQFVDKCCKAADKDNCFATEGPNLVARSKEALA
T2 sequence (P08835 25-607): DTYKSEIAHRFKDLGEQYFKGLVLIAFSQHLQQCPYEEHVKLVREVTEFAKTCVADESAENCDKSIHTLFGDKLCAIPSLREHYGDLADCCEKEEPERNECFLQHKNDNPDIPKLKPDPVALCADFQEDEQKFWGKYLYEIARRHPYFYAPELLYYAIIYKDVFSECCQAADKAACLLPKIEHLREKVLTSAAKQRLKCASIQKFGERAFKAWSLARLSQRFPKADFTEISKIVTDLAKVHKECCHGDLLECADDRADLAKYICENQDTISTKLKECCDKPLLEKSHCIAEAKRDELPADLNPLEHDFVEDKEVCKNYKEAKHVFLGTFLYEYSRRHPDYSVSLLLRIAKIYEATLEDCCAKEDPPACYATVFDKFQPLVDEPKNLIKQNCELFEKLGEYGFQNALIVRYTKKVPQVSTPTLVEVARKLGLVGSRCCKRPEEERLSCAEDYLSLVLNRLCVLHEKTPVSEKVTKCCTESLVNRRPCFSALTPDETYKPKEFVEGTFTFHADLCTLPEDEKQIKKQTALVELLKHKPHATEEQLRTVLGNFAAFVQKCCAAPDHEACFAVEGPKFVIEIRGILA
T4 sequence (P02769 25-607): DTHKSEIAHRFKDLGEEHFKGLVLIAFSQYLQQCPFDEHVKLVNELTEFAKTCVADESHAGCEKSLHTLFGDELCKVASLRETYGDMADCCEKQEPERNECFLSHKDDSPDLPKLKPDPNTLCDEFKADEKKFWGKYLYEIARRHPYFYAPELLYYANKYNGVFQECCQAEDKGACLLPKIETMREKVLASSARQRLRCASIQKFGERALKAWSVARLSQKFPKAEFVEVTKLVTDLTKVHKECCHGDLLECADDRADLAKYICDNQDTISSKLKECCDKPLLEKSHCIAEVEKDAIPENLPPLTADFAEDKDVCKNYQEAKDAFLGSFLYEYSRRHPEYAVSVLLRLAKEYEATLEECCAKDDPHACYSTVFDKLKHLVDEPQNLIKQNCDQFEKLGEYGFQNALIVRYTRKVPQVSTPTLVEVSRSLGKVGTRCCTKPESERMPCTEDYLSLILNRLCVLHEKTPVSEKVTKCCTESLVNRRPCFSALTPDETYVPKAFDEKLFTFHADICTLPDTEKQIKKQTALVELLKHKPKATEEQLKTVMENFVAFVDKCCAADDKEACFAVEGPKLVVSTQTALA

Row | SMILES | SGD-induced increase in the emission signal of the mycotoxin [1] | decrease in mycotoxin concentration (extraction) by BBP [2] | removal of mycotoxin by BBP at pH 10.0 compared with pH 5.0 ([2]; sodium borate pH 10.0 vs sodium acetate pH 5.0, mycotoxin 5 μM) | Kd ([3]; 0.05 M sodium acetate pH 5.0, mycotoxin 5 μM, n = 3, read-out: HSA pH 5.0 logK ± SEM (binding constant) (converted)) [µM] | Kd ([3]; 0.05 M sodium borate pH 8.5, mycotoxin 5 μM, n = 3, read-out: HSA pH 8.5 logK ± SEM (binding constant) (converted)) [µM] | Kd ([3]; PBS pH 7.4, mycotoxin 5 μM, n = 3, read-out: HSA pH 7.4 logK ± SEM (binding constant) (converted)) | effect on fluorescence emission spectrum of PSA [4] | effect on fluorescence emission spectrum of HSA [5] | SBECD logK ± SEM (binding constant) ([6]; Benesi–Hildebrand, 0.05 M sodium acetate pH 5.0, mycotoxin 1 μM, n = 3) [L/mol] | SBECD-induced increase in the emission signal of the mycotoxin ([6]; SBECD 0–10 mM, mycotoxin 1 μM, sodium acetate pH 5.0) | Kd (rat serum albumin (RSA) [7]) [µM] | RSA logKSV ± SEM (Stern–Volmer quenching constant) (rat serum albumin (RSA) [8]; PBS pH 7.4, 25 °C, albumin 2 μM, mycotoxin 0–5 μM, n = 3) [L/mol] | Kd (rat serum albumin (RSA) [8]; fluorescence quenching, HyperQuad fitting, PBS pH 7.4, n = 3, read-out: RSA logK ± SEM (binding constant) (converted)) [µM] | binding constant K of Z14Glr-RSA complex (rat serum albumin (RSA) [8]; fluorescence quenching, PBS pH 7.4) | effect on fluorescence emission intensity of RSA (rat serum albumin (RSA) [8]; mycotoxin 0–5 μM, albumin 2 μM, PBS pH 7.4) | effect on fluorescence emission spectrum of BSA [9] | removal of mycotoxin by GBP [10] | affinity of RSA compared to HSA (albumins)
1 | C[C@H]1CCCC(=O)CCC/C=C/c2cc(O[C@@H]3OC(C(=O)O)[C@@H](O)C(O)C3O)cc(O)c2C(=O)O1 (stereo partly drawn) [Z14Glr, zearalenone-14-β,D-glucuronide] | fivefold | 45% | significantly lower than at acidic pH | 25.7 | 58.9 | 63.1 µM and 60.3 µM | barely affected | barely affected | 2.32 ± 0.12 | ninefold | 13.5 | 4.65 ± 0.05 | 19.5 | ≈ 5 × 10^4 L/mol | considerably decreased | barely affected | only moderate removal | 
2 | Cc1cc(O)cc2oc(=O)c3c(O)cc(O)cc3c12 [alternariol] |  |  |  |  |  |  |  |  |  |  |  |  |  |  |  |  |  | almost eightfold higher affinity
3 | C[C@H]1CCCC(=O)CCC/C=C/c2cc(O)cc(O)c2C(=O)O1 [zearalenone] |  | more than 95% |  |  |  |  |  |  |  |  |  |  |  |  |  |  |  | 
